The text below walks through data of patent publication US11597746B2, “Cyclic dinucleotides as sting agonists” (JANSSEN BIOTECH, INC., priority 2018, dated 2023).

A word on the EC50: it is the concentration at which the effect is half-maximal. Read a low EC50 as an effect from little substance. As a reminder, the IC50 is the concentration at which inhibition is half-maximal.

The test system of assay [1] is human STING pathway in THP1-ISG cells. The assay can be described thus: STING human cell reporter assay. Type of assay: cell-based. The settings on record: IRF-inducible SEAP reporter, 24 h. (In general: A reporter such as luciferase makes a cellular process visible.)
Procedure: STING Human Cell Reporter Assay
Agonism of the human STING pathway is assessed in THP1-ISG cells (Invivogen, cat #thp-isg) derived from human THP1 monocyte cell line by stable integration of an interferon regulatory factor (IRF)-inducible SEAP reporter construct. THP1-Blue ISG cells express a secreted embryonic alkaline phosphatase (SEAP) reporter gene under the control of an ISG54 minimal promoter in conjunction with five interferon (IFN)-stimulated response elements. As a result, THP1-Blue ISG cells allow the monitoring of IRF activation by determining the activity of SEAP. The levels of IRF-induced SEAP in the cell culture supernatant are readily assessed with alkaline phosphatase detection medium, a SEAP detection reagent. These cells are resistant to Zeocin. 2′3′cGAMP was used as a positive control in this assay. To run the assay, 60,000 cells were dispensed in 30 μL/well of a white, opaque bottom tissue culture treated 384-well plate.
Test compounds were added in a volume of 10 μL (1% DMSO final concentration). Compounds are initially prepared in 100% DMSO, spotted on an intermediate dilution plate and then diluted in media prior to transfer. The assay was incubated for 24 h at 37° C., 5% CO2 then plates were centrifuged at 1200 rpm (120×g) for 5 min. After final incubation, 90 μL of alkaline phosphatase detection medium-substrate was added to each well of a new 384-well clear plate and 10 μL of the cell supernatant was transferred from the assay plate to the new alkaline phosphatase detection medium-plate using a Biomek FX and mixed 4 times.
The target of the next assay is human STING (Homo sapiens (Human), UniProt Q86WV6, H232R). The assay can be described thus: STING SPA binding assay. To be noted: for IC50: displacement of [3H]-2′3′-cGAMP from biotinylated recombinant STING (residues 139-379, H232R), read-out: hSTING SPA IC50.
human STING, sequence (Q86WV6 139-379 H232R): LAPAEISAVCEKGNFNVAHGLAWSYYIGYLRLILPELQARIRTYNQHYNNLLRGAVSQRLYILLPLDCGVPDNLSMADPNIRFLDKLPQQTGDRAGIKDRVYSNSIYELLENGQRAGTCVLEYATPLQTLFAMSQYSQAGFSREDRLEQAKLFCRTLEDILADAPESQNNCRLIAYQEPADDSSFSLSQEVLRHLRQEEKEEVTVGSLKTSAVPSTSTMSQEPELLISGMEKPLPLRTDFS

Take `Nc1ncnc2c1ncn2[C@@H]1O[C@@H]2CNS(=O)(=O)O[C@H]3[C@@H](F)[C@H](n4cnc5c(N)ncnc54)O[C@@H]3CO[P@](=O)(S)O[C@H]2[C@H]1F` (single isomer, unassigned) [Compound 3]: in assay [1], the midpoint of the response, the EC50, lay at 540 nM.

As to `Nc1nc2c(ncn2[C@@H]2O[C@@H]3CNS(=O)(=O)O[C@H]4[C@H](F)[C@H](n5cnc6c(N)ncnc65)O[C@@H]4CO[P@@](=O)(S)O[C@H]3[C@H]2F)c(=O)[nH]1` (single isomer, unassigned) [Compound 16-R], the EC50 in assay [1] was determined as 1830 nM.

As for `Nc1nc2c(ncn2[C@@H]2O[C@@H]3CNS(=O)(=O)O[C@H]4[C@H](F)[C@H](n5cnc6c(N)ncnc65)O[C@@H]4CO[P@](=O)(S)O[C@H]3[C@H]2F)c(=O)[nH]1` (single isomer, unassigned) [Compound 16-S], in assay [1], the midpoint of the response, the EC50, lay at 4.6 nM.

In turn, `Nc1nc2c(ncn2[C@@H]2O[C@@H]3CO[P@@](=O)(S)O[C@H]4[C@@H](F)[C@H](n5cnc6c(N)ncnc65)O[C@@H]4CNS(=O)(=O)O[C@H]3[C@H]2F)c(=O)[nH]1` (single isomer, unassigned) [Compound 18-R] registered a concentration giving a half-maximal response (EC50) in assay [1] of 93 nM.

With `Nc1nc2c(ncn2[C@@H]2O[C@@H]3CO[P@](=O)(S)O[C@H]4[C@@H](F)[C@H](n5cnc6c(N)ncnc65)O[C@@H]4CNS(=O)(=O)O[C@H]3[C@H]2F)c(=O)[nH]1` (single isomer, unassigned) [Compound 18-S], a half-maximal response in assay [1] (EC50) required 21100 nM. Compared with the last compound, the EC50 is about 230-fold higher.

Regarding `Nc1ncnc2c1ncn2[C@@H]1O[C@@H]2CO[P@@](=O)(S)O[C@H]3[C@@H](F)[C@H](n4cnc5c(=O)[nH]cnc54)O[C@@H]3COS(=O)(=O)O[C@H]2[C@H]1F` (single isomer, unassigned) [Compound 22-R], the EC50 in assay [1] was found to be 29 nM.

With `Nc1ncnc2c1ncn2[C@@H]1O[C@@H]2CO[P@](=O)(S)O[C@H]3[C@@H](F)[C@H](n4cnc5c(=O)[nH]cnc54)O[C@@H]3COS(=O)(=O)O[C@H]2[C@H]1F` (single isomer, unassigned) [Compound 22-S], it took 97 nM to reach a half-maximal effect in assay [1] (EC50). Compared with the last compound, the EC50 is about 3.3-fold higher.

`Nc1ncnc2c1ncn2[C@@H]1O[C@@H]2CO[P@@](=O)(S)O[C@H]3[C@@H](F)[C@H](n4cnc5c(=O)[nH]cnc54)O[C@@H]3CNS(=O)(=O)O[C@H]2[C@H]1F` (single isomer, unassigned) [Compound 31-R]: the EC50 in assay [1] was found to be 930 nM.

`Nc1ncnc2c1ncn2[C@@H]1O[C@@H]2CO[P@](=O)(S)O[C@H]3[C@@H](F)[C@H](n4cnc5c(=O)[nH]cnc54)O[C@@H]3CNS(=O)(=O)O[C@H]2[C@H]1F` (single isomer, unassigned) [Compound 31-S]: a half-maximal response in assay [1] (EC50) required 970 nM.

For the compound `Nc1nc2c(ncn2[C@@H]2O[C@@H]3CO[P@@](=O)(S)O[C@H]4[C@@H](F)[C@H](n5cnc6c(N)ncnc65)O[C@@H]4CNS(=O)(=O)O[C@H]3[C@@H]2F)c(=O)[nH]1` (single isomer, unassigned) [Compound 34-R], the response in assay [1] was half-maximal at 23700 nM (EC50).

For the compound `Nc1nc2c(ncn2[C@@H]2O[C@@H]3CO[P@](=O)(S)O[C@H]4[C@@H](F)[C@H](n5cnc6c(N)ncnc65)O[C@@H]4CNS(=O)(=O)O[C@H]3[C@@H]2F)c(=O)[nH]1` (single isomer, unassigned) [Compound 34-S], the response in assay [1] was half-maximal at 47700 nM (EC50). Against the preceding compound, the EC50 is about 2-fold higher.

Regarding `Nc1ncnc2c1ncn2[C@@H]1O[C@@H]2CNS(=O)(=O)O[C@H]3[C@@H](F)[C@H](n4cnc5c(N)ncnc54)O[C@@H]3COP(=O)(O)O[C@H]2[C@H]1F` [Compound 1], a half-maximal effect in assay [1] (EC50) was put at 160 nM.

`Nc1ncnc2c1ncn2[C@@H]1O[C@@H]2CNS(=O)(=O)O[C@H]3[C@@H](F)[C@H](n4cnc5c(N)ncnc54)O[C@@H]3CO[P@@](=O)(S)O[C@H]2[C@H]1F` [Compound 2] returned an EC50 in assay [1] of 12 nM.

With `CO[C@@H]1[C@@H]2OS(=O)(=O)NC[C@H]3O[C@@H](n4cnc5c(N)ncnc54)[C@H](F)[C@@H]3OP(=O)(O)OC[C@H]2O[C@H]1n1cnc2c(=O)[nH]c(N)nc21` [Compound 4], in assay [1], the EC50 was 64100 nM.

`Nc1ncnc2c1ncn2[C@@H]1O[C@@H]2COP(=O)(O)O[C@H]3C[C@H](n4cnc5c(N)ncnc54)O[C@@H]3CNS(=O)(=O)O[C@H]2[C@H]1F` [Compound 6] registered an EC50 in assay [1] of 2940 nM.

As for `Nc1nc2c(ncn2[C@@H]2O[C@@H]3COP(=O)(O)O[C@H]4[C@@H](O)[C@H](n5cnc6c(N)ncnc65)O[C@@H]4CNS(=O)(=O)O[C@H]3[C@H]2F)c(=O)[nH]1` [Compound 9], in assay [1], the midpoint of the response, the EC50, lay at 6240 nM.

Turning to `Nc1nc2c(ncn2[C@@H]2O[C@@H]3CNS(=O)(=O)O[C@H]4[C@H](F)[C@H](n5cnc6c(N)ncnc65)O[C@@H]4COP(=O)(O)O[C@H]3[C@H]2F)c(=O)[nH]1` [Compound 13], a half-maximal response in assay [1] (EC50) required 20 nM.

As for `Nc1nc2c(ncn2[C@@H]2O[C@@H]3CO[P@@](=O)(S)O[C@H]4[C@@H](O)[C@H](n5cnc6c(N)ncnc65)O[C@@H]4CNS(=O)(=O)O[C@H]3[C@H]2F)c(=O)[nH]1` [Compound 14-R], in assay [1], a half-maximal effect (EC50) was put at 1830 nM.

For the compound `Nc1nc2c(ncn2[C@@H]2O[C@@H]3CO[P@](=O)(S)O[C@H]4[C@@H](O)[C@H](n5cnc6c(N)ncnc65)O[C@@H]4CNS(=O)(=O)O[C@H]3[C@H]2F)c(=O)[nH]1` [Compound 14-S], the 50% effective concentration (EC50) in assay [1] is greater than 100000 nM.

`COc1ccc(CO[C@@H]2[C@@H]3OS(=O)(=O)NC[C@H]4O[C@@H](n5cnc6c(N)ncnc65)[C@H](F)[C@@H]4OP(=O)(O)OC[C@H]3O[C@H]2n2cnc3c(N)ncnc32)cc1` [Compound 15-R]: at human STING, the IC50 is greater than 100000 nM. The compound further had an EC50 in assay [1] greater than 100000 nM.

`Nc1ncnc2c1ncn2[C@@H]1O[C@@H]2CNS(=O)(=O)O[C@H]3[C@@H](F)[C@H](n4cnc5c(=O)[nH]cnc54)O[C@@H]3CO[P@@](=O)(S)O[C@H]2[C@H]1F` [Compound 17-R]: in assay [1], the EC50 was found to be 980 nM.

For the compound `Nc1ncnc2c1ncn2[C@@H]1O[C@@H]2CNS(=O)(=O)O[C@H]3[C@@H](F)[C@H](n4cnc5c(=O)[nH]cnc54)O[C@@H]3CO[P@](=O)(S)O[C@H]2[C@H]1F` [Compound 17-S], the half-maximal effective concentration (EC50) in assay [1] was determined as 4230 nM.

With `Nc1ncnc2c1ncn2[C@@H]1O[C@@H]2CNS(=O)(=O)O[C@H]3[C@@H](F)[C@H](n4cnc5c(N)ncnc54)O[C@@H]3CO[P@@](=O)(S)O[C@H]2[C@H]1F` [Compound 20-R], the EC50 in assay [1] was 350 nM. This EC50 lies about 12-fold lower than the previous one.

Take `Nc1ncnc2c1ncn2[C@@H]1O[C@@H]2CNS(=O)(=O)O[C@H]3[C@@H](F)[C@H](n4cnc5c(N)ncnc54)O[C@@H]3CO[P@](=O)(S)O[C@H]2[C@H]1F` [Compound 20-S]: the midpoint of the response in assay [1], the EC50, lay at 61800 nM.

As to `Nc1ncnc2c1ncn2[C@@H]1O[C@@H]2COP(=O)(O)O[C@H]3[C@@H](F)[C@H](n4cnc5c(=O)[nH]cnc54)O[C@@H]3CNS(=O)(=O)O[C@H]2[C@H]1F` [Compound 24], the EC50 in assay [1] was 70 nM. This EC50 is about 880-fold lower than that of the compound before.

For the compound `Nc1nc2c(ncn2[C@@H]2O[C@@H]3COP(=O)(O)O[C@H]4[C@@H](F)[C@H](n5cnc6c(N)ncnc65)O[C@@H]4CNS(=O)(=O)O[C@H]3[C@@H]2F)c(=O)[nH]1` [Compound 26], the concentration giving a half-maximal response (EC50) in assay [1] worked out at 30 nM.

In assay [1], `Nc1ncnc2c1ncn2[C@H]1C[C@@H]2NS(=O)(=O)OC[C@H]3O[C@@H](n4cnc5c(=O)[nH]cnc54)[C@H](F)[C@@H]3OP(=O)(O)OC[C@H]2O1` [Compound 28] had an EC50 of 730 nM.

As to `Nc1ncnc2c1ncn2[C@@H]1O[C@@H]2CNS(=O)(=O)O[C@H]3C[C@H](n4cc(F)c5c(N)ncnc54)O[C@@H]3COP(=O)(O)O[C@H]2[C@H]1F` [Compound 29], the EC50 in assay [1] was greater than 100000 nM.

For `Nc1ncnc2c1ncn2[C@@H]1O[C@@H]2CNS(=O)(=O)O[C@H]3C[C@H](n4cnc5cc(Cl)c(Cl)cc54)O[C@@H]3COP(=O)(O)O[C@H]2[C@H]1F` [Compound 32], the EC50 in assay [1] was determined as 180 nM.

Regarding `Nc1ncnc2c1ncn2[C@@H]1O[C@@H]2CNS(=O)(=O)O[C@H]3C[C@H](n4cnc5cncnc54)O[C@@H]3COP(=O)(O)O[C@H]2[C@H]1F` [Compound 33], the EC50 in assay [1] was found to be 730 nM.

Take `Nc1ncnc2c1ncn2[C@@H]1O[C@@H]2CNS(=O)(=O)O[C@H]3[C@H]4OO[C@]3(CO[P@@](=O)(S)O[C@H]2[C@H]1F)O[C@H]4n1cnc2c(N)ncnc21` [Compound 37-R]: in assay [1], the EC50 amounted to 880 nM.

As for `Nc1ncnc2c1ncn2[C@@H]1O[C@@H]2CNS(=O)(=O)O[C@H]3[C@H]4OO[C@]3(CO[P@](=O)(S)O[C@H]2[C@H]1F)O[C@H]4n1cnc2c(N)ncnc21` [Compound 37-S], the EC50 in assay [1] worked out at 640 nM.

In assay [1], `Nc1ncnc2c1ncn2[C@@H]1O[C@@H]2CNS(=O)(=O)O[C@H]3C[C@H](n4ncc5c(=O)[nH]cnc54)O[C@@H]3COP(=O)(O)O[C@H]2[C@H]1F` [Compound 39] returned an EC50 greater than 100000 nM.

The compound `Nc1ncnc2c1ncn2[C@@H]1O[C@@H]2CNS(=O)(=O)O[C@H]3C[C@H](n4nnc5c(=O)[nH]cnc54)O[C@@H]3COP(=O)(O)O[C@H]2[C@H]1F` [Compound 42] yielded an EC50 in assay [1] of 100000 nM.

The compound `Nc1ncnc2c1ncn2[C@@H]1O[C@@H]2CNS(=O)(=O)O[C@H]3C[C@H](n4cnc5c(=O)[nH]ncc54)O[C@@H]3COP(=O)(O)O[C@H]2[C@H]1F` [Compound 43] had an EC50 in assay [1] of 730 nM.

As to `Nc1nc(N)c2ncn([C@@H]3O[C@@H]4COP(=O)(O)O[C@H]5[C@@H](F)[C@H](n6cnc7c(N)ncnc76)O[C@@H]5CNS(=O)(=O)O[C@H]4[C@H]3F)c2n1` [Compound 44], in assay [1], the EC50 was determined as 2650 nM.

For the compound `Nc1nc2c(ncn2[C@@H]2O[C@@H]3COP(=O)(O)O[C@H]4[C@@H](F)[C@H](n5cnc6c(N)ncnc65)O[C@@H]4CNS(=O)(=O)O[C@H]3[C@H]2OCc2ccccc2)c(=O)[nH]1` [Compound 46], the IC50 at human STING is greater than 100000 nM. In assay [1], this compound came in with an EC50 greater than 100000 nM.

In assay [1], `Nc1ncnc2c1ncn2[C@@H]1O[C@@H]2CNS(=O)(=O)O[C@H]3[C@@H](F)[C@H](n4cnc5c(N)ncnc54)O[C@@H]3CNS(=O)(=O)O[C@H]2[C@H]1F` [Compound 47] registered an EC50 of 290 nM.

On to `Nc1nc2c(ncn2[C@@H]2O[C@@H]3COP(=O)(O)O[C@H]4[C@@H](O)[C@H](n5cnc6c(=O)[nH]c(N)nc65)O[C@@H]4COP(=O)(O)O[C@H]3[C@H]2O)c(=O)[nH]1` [cyclic-di-GMP, reference compound], for which, at human STING (natural ligand), the “values in STING SPA binding assay” value is recorded as “within the expected range”.
